Data on two molecules can be found in paper PMC6505672, “Conformational change of Sos-derived proline-rich peptide upon binding Grb2 N-terminal SH3 domain probed by NMR” (Scientific Reports, 2013).

Values joined by “and” are separate entries in the source; they are usually repeats but may differ in a detail not shown here. Equal entries are not always repeated.

The target of data set [1] is Sos-derived VPP peptide (Homo sapiens) (UniProt Q07889). The note with it: cited from earlier work.
Data set [2] has as its target T1, Grb2 N-terminal SH3 (nSH3) domain (Homo sapiens, UniProt P62993).
T1 construct: The plasmid to express the Grb2 nSH3 domain (residues 1–57) was constructed by using a pGEX-6P expression vector; GST (N, cleaved yes); made in house; host or cells: E. coli BL21 (DE3)
Description: Minor (cis Xaa-Pro) peaks in 1H-13Cα HSQC, Grb2 nSH3-bound state. Format: physicochemical. Conditions: PBS in 2H2O, 25°C. The protocol: The relative intensities of the minor peaks with respect to the major peaks for these residues were 10% for Val1, 3% for Pro2, 14% for Pro4, 10% for Val5, and 6% for Pro6.
The buffer system for NMR experiments was PBS in ^2H2O. […] Data were processed using the NMRPipe/NMRDraw software package. Peak picking and spectral analysis were performed using the Sparky program. Conformational analyses based on chemical shifts were conducted using the Random Coil Index (RCI) program[19] on the web server (http://randomcoilindex.com/).

Data set [3] relates to Grb2 nSH3. Conditions: single alanine substitution, ITC; cited from earlier work.
Data set [4] deals with T1, Grb2 N-terminal SH3 (nSH3) domain. Description: 13Cα CPMG relaxation dispersion of VPP peptide with Grb2 nSH3. It is filed as binding. How it is done: Non-labelled VPP (10 mM) peptide mixed with 0.25 mM Grb2 nSH3 dissolved in ^2H2O solvent was subjected to ^13Cα relaxation dispersion experiments.
The global exchange parameters of the exchange rate, kex; the fractional population of the minor state, Pb were calculated from the dispersion curves of Val5 and Arg8. Then, the chemical shift difference between two states, Δω; the target function of fitting error, χ^2; and the nonexchangeable contribution of R2,eff, R2,0 for each residue were calculated using the global exchange parameters based on a two-state exchange model. […] The exchange rate kex is defined as kex = kon[P] + koff, where [P] is the concentration of the protein. In this experimental condition, [P] is assumed to be zero because the concentration of the ligand is much higher than that of the protein. Thus, kex = koff. The affinity of the ligand to the protein, i.e., Kd, is defined as Kd = koff/kon. If kon is diffusion-controlled, kon ~ 10^8 M^−1s^−1. […] However, as reported by Lundström et al. Cα and Cβ atoms of valine are simultaneously incorporated to the final products from [^13C-2]-glucose as a sole carbon source by using an E.coli expression system. Thus, isolated ^13Cα-selective labelled valine residues cannot be prepared for this experimental purpose.
Two-dimensional ^1H-^13C correlated spectra were collected as series of data sets with CPMG frequencies (νCPMG) of 30, 60, 120, 180, 300, 450, and 600 Hz. The constant-time relaxation delay Trelax was set to 66.7 ms. Spectra were recorded as 62 × 600 complex points with a 2.6-s repetition delay and 32 scans for each increment. The total experimental time was 24 h for both 600 and 500 MHz spectrometers.
Peak intensities of the ^13Cα relaxation dispersion data were quantified using the Sparky program. The transverse relaxation constant, R2,eff, for each νCPMG frequency was calculated as R2,eff = −ln(I(νCPMG)/I0)/Trelax, where I(νCPMG) is the peak intensity obtained for a given value of νCPMG and I0 is the peak intensity obtained when the CPMG block is omitted. The CPMG dispersion curves were fitted numerically as a two-state exchange model using an in-house program described elsewhere. The fitting calculation extracted the following terms as the global parameters: the exchange rate, kex; the fractional population of the minor state, Pb; and the residue specific parameters, including the magnitude of the chemical shift difference between two states, Δω; the target function of fitting error, χ^2; and the nonexchangeable contribution of R2,eff, R2,0.

Data set [5] in a line: 13Cα CPMG relaxation dispersion of free VPP peptide (Grb2 nSH3 absent). Format: physicochemical. Conditions: 25°C. How it is done: The global exchange parameters of the exchange rate, kex; the fractional population of the minor state, Pb were calculated from the dispersion curves of Val5 and Arg8. Then, the chemical shift difference between two states, Δω; the target function of fitting error, χ^2; and the nonexchangeable contribution of R2,eff, R2,0 for each residue were calculated using the global exchange parameters based on a two-state exchange model. […] The kex values were slightly larger than the Δω values, indicating a fast or intermediate exchange process on the chemical shift time scale. The exchange rate kex is defined as kex = kon[P] + koff, where [P] is the concentration of the protein. […]
Two-dimensional ^1H-^13C correlated spectra were collected as series of data sets with CPMG frequencies (νCPMG) of 30, 60, 120, 180, 300, 450, and 600 Hz. […] Spectra were recorded as 62 × 600 complex points with a 2.6-s repetition delay and 32 scans for each increment. […]
Peak intensities of the ^13Cα relaxation dispersion data were quantified using the Sparky program. The transverse relaxation constant, R2,eff, for each νCPMG frequency was calculated as R2,eff = −ln(I(νCPMG)/I0)/Trelax, where I(νCPMG) is the peak intensity obtained for a given value of νCPMG and I0 is the peak intensity obtained when the CPMG block is omitted. […]

Details of data set [6]: method as in earlier work. Conditions: free state, cited from earlier work.

T1 sequence (P62993 1-57): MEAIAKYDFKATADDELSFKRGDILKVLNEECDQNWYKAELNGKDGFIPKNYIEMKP
Chain of Grb2 nSH3 (from UniProt P62993) (P62993 1-58): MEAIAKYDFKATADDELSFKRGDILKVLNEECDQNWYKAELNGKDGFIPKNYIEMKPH

A word on the Kd: it is a measure of binding affinity in units of concentration. On to Grb2 nSH3 (from UniProt P62993), for which, in data set [1], the Kd is 3.5 µM.
With `CC(C)C[C@H](NC(=O)[C@@H]1CCCN1C(=O)CN)C(=O)NCC(=O)N[C@@H](CO)C(=O)N[C@H](C(=O)N1CCC[C@H]1C(=O)N1CCC[C@H]1C(=O)N1CCC[C@H]1C(=O)N[C@H](C(=O)N1CCC[C@H]1C(=O)N1CCC[C@H]1C(=O)N[C@@H](CCCNC(=N)N)C(=O)N[C@@H](CCCNC(=N)N)C(=O)N[C@@H](CCCNC(=N)N)C(=O)O)C(C)C)C(C)C` [VPP peptide], the “minor (cis) peaks in bound state” value in data set [2] is recorded as “lack of minor peaks in the bound state”. Moreover, the “residues critical for interaction with Grb2 nSH3” value in data set [3] is “Pro3, Val5, Pro6, and Arg8 of the VPP peptide are critical for interaction with Grb2 nSH3”. Further, the “population of the minor state (Pb), in percent” value in data set [4] (10 mM peptide, 0.25 mM Grb2 nSH3, 25°C, bound population expected from sample 2.5%) is ~ 2.6%. In data set [4] (global fit of Val5 and Arg8, two-state exchange model, 10 mM VPP peptide, 0.25 mM Grb2 nSH3, PBS in 2H2O, 25°C, 11.7 and 14.1 T, kex = koff assumed), the “exchange rate, kex” value turned out to be 1037.87 s⁻¹. In addition, the “fractional population of the minor state, Pb” value in data set [4] (global fit of Val5 and Arg8, two-state model, 10 mM peptide, 0.25 mM Grb2 nSH3, 25°C, as fraction) stood at 0.026. Also, the significant relaxation dispersion entry in data set [4] (presence of Grb2 nSH3, 11.7 and 14.1 T, 25°C) is “Significant dispersion was only observed for Val5 and Arg8 and not for the other residues”. Further, the Δω is 0–1.5 ppm in data set [4] (range over all residues, 13Cα, relaxation dispersion); 0.09 ± 0.18 ppm in data set [4] (residue P3, 13Cα shift difference between two states from relaxation dispersion fit, 25°C); 1.53 ppm and 1.53 ± 0.42 ppm in data set [4] (residue R8, 13Cα shift difference between two states from relaxation dispersion fit, 25°C); 0.23 ± 0.20 ppm in data set [4] (residue R9, 13Cα shift difference between two states from relaxation dispersion fit, 25°C); 0.13 ± 0.17 ppm in data set [4] (residue R10, 13Cα shift difference between two states from relaxation dispersion fit, 25°C); 1.47 ppm and 1.47 ± 0.52 ppm in data set [4] (residue V5, 13Cα shift difference between two states from relaxation dispersion fit, 25°C). Moreover, in data set [4] (residues P4/P7 (overlapped), 13Cα shift difference between two states from relaxation dispersion fit, 25°C), the Δω worked out at 0.00 ± 0.16 ppm. Besides, the relaxation dispersion curves entry in data set [5] is on record as “the dispersion curves were flat”. Also, in data set [6] (NMR and circular dichroism), the PPII helix structure is recorded as ~ 60%. Besides, the “minor (cis) conformation” value in data set [6] is listed as 9%.
